This note sets out measurements from PMC11638965, “Leveraging Dual-Ligase Recruitment to Enhance Protein Degradation via a Heterotrivalent Proteolysis Targeting Chimera” (Journal of the American Chemical Society, 2024).

The structures appear in SMILES notation. Like-named read-outs stand apart in the source and are kept apart here.

In test [1] the target is T1, VHL (Homo sapiens, UniProt P40337).
T1 construct: host or cells: HEK293, transient
Nature of the test: NanoBRET lytic and live cell target engagement assay. It is filed as binding. Here is the method:
CRBN (N2910, Promega) and VHL (N2930, Promega) NanoBRET target engagement assays were performed according to manufacturer’s instructions. Transfection complexes were prepared using 1 mL Opti-MEM, 30 μL FuGENE HD, and either 9 μg/mL DDB1 Expression Vector and 1 μg/mL NanoLuc-CRBN fusion vector, or 9 μg/mL Transfection Carrier DNA and 1 μg/mL VHL-NanoLuc fusion vector. Transfection complexes were allowed to form for 20 min at room temperature, then were added to 20 mL of HEK293 cells at density of 200,000 cells/mL. Transfected HEK293 cells were plated in a T75 flask and allowed to express protein overnight. The next day, 85 μL of transfected cells (at 200,000 cells/mL) were replated in white nonbinding 96-well plates for live and lytic target engagement measurements. For live mode, a 100x solution of NanoBRET tracer was prepared using 100% DMSO (50 μM for CRBN live-cell, 100 μM for VHL live-cell). 100x tracer was used to prepare 20× tracer using tracer dilution buffer. PROTACs or test compounds were prepared at 10x final concentrations in Opti-MEM. Five μL of the prepared tracer was then dispensed to each well and the plate was mixed on an orbital shaker at 300 rpm for 15 s. Ten μL of each 10x PROTAC dilution was added to the cells and the plate was mixed again before being incubated at a 37 °C, 5% CO2 incubator for 2 or 5 h (as indicated in each figure). After incubation, a 50 μL of a 3X substrate solution (containing 30 μL NanoBRET Nano-Glo Substrate, 10 μL Extracellular NanoLuc inhibitor, and 4960 μL of Opti-MEM) was added to each well. Plates were incubated for 2–3 min at room temperature, then donor emission (450 nm) and acceptor emission (at 610 nm) values were read using a GloMax Discover. For lytic mode, the following changes were made. 100x tracer concentration for CRBN was 13 μM, 100X tracer concentration for VHL was 25 μM, 75 μL of a 200,000 cell/mL solution was plated in white nonbinding 96-well plates, and 10 μL of a 10x digitonin solution was added immediately after the cells were treated with PROTACs. Plates were incubated in darkness for 5 min after digitonin addition to allow for permeabilization. 50 μL of 3X substrate (30 μL NanoBRET Nano-Glo substrate and 4970 μL Opti-MEM) was added to each well and plates were incubated for 1 min at room temperature before being read on a GloMax Discover as above.
A general note: BRET reads energy transfer from a luciferase to a nearby fluorophore.

Test [2] concerns the target BRD4 (Homo sapiens, UniProt O60885). Briefly: NanoBRET ubiquitination assay. Format: cell-based. As to conditions: parental vs CRBN KO or VHL KO HiBiT-BRD4 cells, HaloTag-Ubiquitin, 12 nM to 3 μM, 4 h. Here is the method:
NanoBRET ubiquitination experiments were conducted using Promega kit ND2690. HEK293 HiBiT-BRD4 parental, VHL KO, or CRBN KO cells (all stably expressing LgBiT) were plated in 6-well plates at 800,000 cells/well and allowed to adhere for 4–6 h prior to being transfected with 2 μg of HaloTag-Ubiquitin Fusion Vector. Cells were allowed to express overnight, then were trypsinized and resuspended in Opti-MEM (reduced serum, no phenol red) 4% FBS at a concentration of 220,000 cells/mL. HaloTag NanoBRET 618 ligand was added at a final concentration of 100 nM to cells (with a portion of cells retained without ligand for use as no-acceptor controls for normalization). 90 μL of cells were then dispensed into each well of a tissue culture 96-well plate and cells were allowed to adhere overnight. The next day, media was aspirated from cells and replaced with 90 μL of a 1× solution of Opti-MEM 4% FBS containing a 1:100 dilution of Nano-Glo Vivazine substrate. […] 10 μL of each 10 × PROTAC was added to each well and the plate was immediately placed in a ClarioStar plate reader (prewarmed to 37 °C) where donor emission (460 nm) and acceptor emission (618 nm) was collected every 3 min for 4 h. NanoBRET ratios were calculated as described in the ternary complex assay.

In test [3] the target is T1, VHL. Briefly: Western blot dose-response degradation in HEK293 cells. It is filed as cell-based. As to conditions: 1 μM to 100 pM, 6 h. A digest of the protocol: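 HEK293 cells treated 6 h at 37 °C with compound over 1 μM to 100 pM alongside vehicle control; lysates in RIPA immunoblotted with target antibodies, tubulin as loading control, fluorescent detection. Band intensities fitted by linear regression to give pDC50; SD for two independent repeats, SEM for three.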

[4] abbreviates: HEK293 cells with NanoLuc-VHL, VHL fluorescent tracer, live cells 2 h, read-out: IC50 (Live Cell), Target: VHL.
Where [5] appears, read: HEK293 cells with NanoLuc-VHL, VHL fluorescent tracer, lysed with digitonin, read-out: IC50 (Lytic Cell), Target: VHL.
Where [6] appears, read: displacement of VHL tracer, live cell format, read-out: IC50 VHL, live cell format.

As a reminder, the IC50 is the concentration at which inhibition is half-maximal.

T1 sequence (P40337 whole entry): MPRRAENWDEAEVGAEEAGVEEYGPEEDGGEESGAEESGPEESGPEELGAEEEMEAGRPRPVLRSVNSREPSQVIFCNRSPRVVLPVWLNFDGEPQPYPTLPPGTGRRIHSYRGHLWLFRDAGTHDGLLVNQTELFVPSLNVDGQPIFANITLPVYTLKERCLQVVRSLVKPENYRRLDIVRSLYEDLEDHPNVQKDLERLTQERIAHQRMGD

In the case of `Cc1ncsc1-c1ccc(CNC(=O)[C@@H]2C[C@@H](O)CN2C(=O)[C@@H](NC(=O)COCC(C)(COCCOCCOCCNc2cc3c(cc2F)C(=O)N(C2CCC(=O)NC2=O)C3=O)COCCOCCOCCOC(=O)C[C@@H]2N=C(c3ccc(Cl)cc3)c3c(sc(C)c3C)-n3c(C)nnc32)C(C)(C)C)cc1` (mixture of isomers) [AB3063 (26), (17S)-11-((2-(2-(2-((2-(2,6-dioxopiperidin-3-yl)-6-fluoro-1,3-dioxoisoindolin-5-yl)amino)ethoxy)ethoxy)ethoxy)methyl)-17-((2S,4R)-4-hydroxy-2-((4-(4-methylthiazol-5-yl)benzyl)carbamoyl)pyrrolidine-1-carbonyl)-11,18,18-trimethyl-15-oxo-3,6,9,13-tetraoxa-16-azanonadecyl 2-((S)-4-(4-chlorophenyl)-2,3,9-trimethyl-6H-thieno[3,2-f][1,2,4]triazolo[4,3-a][1,4]diazepin-6-yl)acetate], the IC50 in test [1] (setting [4]) is more than 10000 nM; in test [1] (setting [5]), 1820 nM; in test [1] (setting [6]), 2300 nM; in test [1] (displacement of VHL tracer, lytic format, read-out: IC50 VHL, lytic format) it was 1820 nM. Besides, in test [1] (live vs lytic), the “fold weaker at engaging VHL in live cell format than in lytic format” value was more than 5.5 fold.
As to `Cc1ncsc1-c1ccc([C@H](C)NC(=O)[C@@H]2C[C@@H](O)CN2C(=O)[C@@H](NC(=O)COCC(C)(COCCOCCOCCNc2cc3c(cc2F)C(=O)N(C2CCC(=O)NC2=O)C3=O)COCCOCCOCCOC(=O)C[C@@H]2N=C(c3ccc(Cl)cc3)c3c(sc(C)c3C)-n3c(C)nnc32)C(C)(C)C)cc1` (mixture of isomers) [AB3067 (27), (17S)-11-((2-(2-(2-((2-(2,6-dioxopiperidin-3-yl)-6-fluoro-1,3-dioxoisoindolin-5-yl)amino)ethoxy)ethoxy)ethoxy)methyl)-17-((2S,4R)-4-hydroxy-2-(((S)-1-(4-(4-methylthiazol-5-yl)phenyl)ethyl)carbamoyl)pyrrolidine-1-carbonyl)-11,18,18-trimethyl-15-oxo-3,6,9,13-tetraoxa-16-azanonadecyl 2-((S)-4-(4-chlorophenyl)-2,3,9-trimethyl-6H-thieno[3,2-f][1,2,4]triazolo[4,3-a][1,4]diazepin-6-yl)acetate], in test [1] (27 vs 26), the “fold stronger binding to VHL with respect to 26, live cell format” value is on record as more than 4.4 fold. Besides, the IC50 is 2280 nM in test [1] (setting [4]), 559 nM in test [1] (setting [5]) and more than 10000 nM in test [1] (setting [6]). Also, in test [2], the “ubiquitination of BRD4 (in words)” value is reported as “occurs more rapidly than in either the CRBN KO or VHL KO cells”.
For `Cc1ncsc1-c1ccc(CNC(=O)[C@@H]2C[C@@H](O)CN2C(=O)[C@@H](NC(=O)COCC(COCCOCCOCCNc2cc3c(cc2F)C(=O)N(C2CCC(=O)NC2=O)C3=O)(COCCOCCOCCOC(=O)C[C@@H]2N=C(c3ccc(Cl)cc3)c3c(sc(C)c3C)-n3c(C)nnc32)COCCOCCOCCOC(=O)C[C@@H]2N=C(c3ccc(Cl)cc3)c3c(sc(C)c3C)-n3c(C)nnc32)C(C)(C)C)cc1` (mixture of isomers) [AB3124 (86)], in test [3], the “VHL degradation (in words)” value is given as “no observed degradation of VHL”.
